Assays:
[1] = Determination of pKa of formulated lipids (TNS fluorescence assay in lipid nanoparticles); format: physicochemical; details: lipid formulated in LNP, 47.5% cationic lipid/10% DSPC/40.8% Cholesterol/1.7% PEG lipid
Method: As described elsewhere, the pKa of formulated lipids is correlated with the effectiveness of LNPs for delivery of nucleic acids (see Jayaraman et al, Angewandte Chemie, International Edition (2012), 51(34), 8529-8533; Semple et al, Nature Biotechnology 28, 172-176 (2010)). The preferred range of pKa is ˜5 to ˜7. The pKa of each lipid was determined in lipid nanoparticles using an assay based on fluorescence of 2-(p-toluidino)-6-napthalene sulfonic acid (TNS). Lipid nanoparticles comprising novel lipid or structure (I) or (II)/DSPC/cholesterol/PEG-lipid (50/10/38.5/1.5 or 47.5:10:40.8:1.7 mol %) in PBS at a concentration of 0.4 mM total lipid are prepared using the in-line process as described in Example 1. TNS was prepared as a 100 μM stock solution in distilled water. Vesicles were diluted to 24 μM lipid in 2 mL of buffered solutions containing 10 mM HEPES, 10 mM MES, 10 mM ammonium acetate, and 130 mM NaCl, where the pH ranged from 2.5 to 11. An aliquot of the TNS solution was added to give a final concentration of 1 μM and following vortex mixing fluorescence intensity was measured at room temperature in a SLM Aminco Series 2 Luminescence Spectrophotometer using excitation and emission wavelengths of 321 nm and 445 nm. A sigmoidal best fit analysis was applied to the fluorescence data and the pKa was measured as the pH giving rise to half-maximal fluorescence intensity.
(§1) Tables 3 and 4 provide properties of representative compounds of structure (I) and (II), respectively, which were formulated using the following molar ratio: 47.5% cationic lipid/10% distearoylphosphatidylcholine (DSPC)/40.8% Cholesterol/1.7% PEG lipid (“PEG-DMA” 2-[2-(ω-methoxy(polyethyleneglycol2000)ethoxy]-N,N-ditetradecylacetamide). Relative activity was determined by measuring luciferase expression in the liver 4 hours following administration via tail vein injection as described in Example 1. The activity was compared at a dose of 0.3 and 1.0 mg mRNA/kg and expressed as ng luciferase/g liver measured 4 hours after administration, as described in Example 1.

[2] = system: luciferase expression in the liver; assay: Luciferase mRNA in vivo evaluation using lipid nanoparticle compositions; parameters: species or system mice; details: tail vein injection, liver 4 hours after administration, LNP 47.5/10/40.8/1.7; for Liver Luc @ 0.3 mg/kg (ng luc/g liver): 0.3 mg mRNA/kg; for Liver Luc @ 1.0 mg/kg (ng luc/g liver): 1.0 mg mRNA/kg
Method: A lipid of structure (I) or (II), DSPC, cholesterol and PEG-lipid were solubilized in ethanol at a molar ratio of 50:10:38.5:1.5 or 47.5:10:40.8:1.7. Lipid nanoparticles (LNP) were prepared at a total lipid to mRNA weight ratio of approximately 10:1 to 30:1. Briefly, the mRNA was diluted to 0.2 mg/mL in 10 to 50 mM citrate buffer, pH 4. Syringe pumps were used to mix the ethanolic lipid solution with the mRNA aqueous solution at a ratio of about 1:5 to 1:3 (vol/vol) with total flow rates above 15 mL/min. The ethanol was then removed and the external buffer replaced with PBS by dialysis. Finally, the lipid nanoparticles were filtered through a 0.2 µm pore sterile filter.
Studies were performed in 6-8 week old female C57BL/6 mice (Charles River) 8-10 week old CD-1 (Harlan) mice (Charles River) according to guidelines established by an institutional animal care committee (ACC) and the Canadian Council on Animal Care (CCAC). Varying doses of mRNA-lipid nanoparticle were systemically administered by tail vein injection and animals euthanized at a specific time point (e.g., 4 hours) post-administration. Liver and spleen were collected in pre-weighed tubes, weights determined, immediately snap frozen in liquid nitrogen and stored at −80° C. until processing for analysis.
For liver, approximately 50 mg was dissected for analyses in a 2 mL FastPrep tubes (MP Biomedicals, Solon Ohio). ¼″ ceramic sphere (MP Biomedicals) was added to each tube and 500 μL of Glo Lysis Buffer—GLB (Promega, Madison WI) equilibrated to room temperature was added to liver tissue. Liver tissues were homogenized with the FastPrep24 instrument (MP Biomedicals) at 2×6.0 m/s for 15 seconds. Homogenate was incubated at room temperature for 5 minutes prior to a 1:4 dilution in GLB and assessed using SteadyGlo Luciferase assay system (Promega). Specifically, 50 μL of diluted tissue homogenate was reacted with 50 μL of SteadyGlo substrate, shaken for 10 seconds followed by 5 minute incubation and then quantitated using a CentroXS^3 LB 960 luminometer (Berthold Technologies, Germany). The amount of protein assayed was determined by using the BCA protein assay kit (Pierce, Rockford, IL). Relative luminescence units (RLU) were then normalized to total μg protein assayed. To convert RLU to ng luciferase a standard curve was generated with QuantiLum Recombinant Luciferase (Promega).
The FLuc mRNA (L-6107) from Trilink Biotechnologies will express a luciferase protein, originally isolated from the firefly, photinus pyralis. FLuc is commonly used in mammalian cell culture to measure both gene expression and cell viability. It emits bioluminescence in the presence of the substrate, luciferin. This capped and polyadenylated mRNA is fully substituted with 5-methylcytidine and pseudouridine.
as §1

Compound | pKa ([1]; structure (II) compounds) | Liver Luc @ 0.3 mg/kg (ng luc/g liver) ([2]; structure (II) compounds) | Liver Luc @ 1.0 mg/kg (ng luc/g liver) ([2]; structure (II) compounds) | pKa ([1]; structure (I) compounds) | Liver Luc @ 0.3 mg/kg (ng luc/g liver) ([2]; structure (I) compounds) | Liver Luc @ 1.0 mg/kg (ng luc/g liver) ([2]; structure (I) compounds)
CCCCCCCCC(CCCCCC)COC(=O)CCCCCN(CCCCCC(=O)OCC(CCCCCC)CCCCCCCC)CCCN(CCCO)C(=O)CCCCCCC (stereo not shown) [II-16] | 6.08 | 93 ± 38 | 1312 ± 569 |  |  | 
CCCCCCCC(=O)N(C)CCCN(CCCCCC(=O)OCC(CCCC)CCCCCC)CCCCCC(=O)OCC(CCCC)CCCCCC (stereo not shown) [II-14] | 5.63 | 128 ± 17 | 827 ± 537 |  |  | 
CCCCCCCCC(CCCCCC)COC(=O)CCCCCCCN(CCCCCCCC(=O)OCC(CCCCCC)CCCCCCCC)CCCCC(=O)N(CC)CC (stereo not shown) [Compound I-11] |  |  |  | 5.89 | 228 ± 101 | 910 ± 454
CCCCCCCCC(CCCCCC)COC(=O)CCCCCN(CCCCCC(=O)OCC(CCCCCC)CCCCCCCC)CCCCNC(=O)CCCCCCC (stereo not shown) [II-4] | 5.95 | 150 ± 59 | 1405 ± 306 |  |  | 
CCCCCCCCC(CCCCCC)COC(=O)CCCCCCCN(CCCCCCCC(=O)OCC(CCCCCC)CCCCCCCC)CCCCN(C)C(C)=O (stereo not shown) [II-5] | 6.8 | 146 ± 16 | 695 ± 278 |  |  | 
CCCCCCCCNC(=O)CCCCN(CCCCCC(=O)OCC(CCCCCC)CCCCCCCC)CCCCCC(=O)OCC(CCCCCC)CCCCCCCC (stereo not shown) [Compound I-3] |  |  |  | 5.99 | 139 ± 43 | 1711 ± 507
CCCCCCCCC(CCCCCC)COC(=O)CCCCCCCN(CCCCCCCC(=O)OCC(CCCCCC)CCCCCCCC)CCCCC(=O)N(CCCO)CCCCCCCC (stereo not shown) [Compound I-12] |  |  |  | 6.01 | 413 ± 143 | 4002 ± 1573
CCCCCCCCCN(CCO)C(=O)CCCCN(CCCCCC(=O)OCC(CCCCCC)CCCCCCCC)CCCCCC(=O)OCC(CCCCCC)CCCCCCCC (stereo not shown) [Compound I-6] |  |  |  | 6.32 | 580 ± 209 | 3290 ± 582
CCCCCCCCC(CCCCCC)COC(=O)CCCCCN(CCCCCC(=O)OCC(CCCCCC)CCCCCCCC)CCCCC(=O)O (stereo not shown) [Compound I-2] |  |  |  | 5.57 |  | 

Reference: US11820728B2, “Carbonyl lipids and lipid nanoparticle formulations for delivery of nucleic acids” (Acuitas Therapeutics, Inc., priority 2017, dated 2023)
